Source: ChEMBL document CHEMBL1201862, “PubChem BioAssay data set” (2004)
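96-well plates; 48 h exposure; 5 concentrations. Endpoints by linear interpolation between flanking doses. Not reached: highest tested concentration assigned. GI50 marks 50% less growth.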 The source made the active and inactive calls. Cut-off read from the data, not from the text of the source: active = GI50 up to about 1.1 µM and inactive = higher.

Assays:
Assay in all cases: NCI anticancer screen, dose series, 48 h
[1] = tested on: NCI/ADR-RES
[2] = tested on: U-251
[3] = tested on: SW-620
[4] = tested on: SK-MEL-5
[5] = tested on: OVCAR-8
[6] = tested on: NCI-H460
[7] = tested on: BT-549
[8] = tested on: HT-29
[9] = tested on: OVCAR-5
[10] = tested on: CAKI-1
[11] = tested on: PC-3
[12] = tested on: DLD-1
[13] = tested on: EKVX
[14] = tested on: MCF7
[15] = tested on: HOP-92
[16] = tested on: COLO 205
[17] = tested on: SK-MEL-2
[18] = tested on: SK-OV-3
[19] = tested on: K562
[20] = tested on: OVCAR-4
[21] = tested on: UACC-62
[22] = tested on: M14
[23] = tested on: UACC-257
[24] = tested on: SN12C
[25] = tested on: SNB-75
[26] = tested on: LOX IMVI
[27] = tested on: KM-20L2
[28] = tested on: NCI-H522
[29] = tested on: 786-0
[30] = tested on: NCI-H226
[31] = tested on: OVCAR-3
[32] = tested on: SNB-78
[33] = tested on: HOP-62
[34] = tested on: Hs-578T
[35] = tested on: SR
[36] = tested on: A498
[37] = tested on: SF-295
[38] = tested on: DMS-273
[39] = tested on: DU-145
[40] = tested on: TK-10
[41] = tested on: T47D
[42] = tested on: MDA-N
[43] = tested on: SF-539
[44] = tested on: HCT-15
[45] = tested on: XF498
[46] = tested on: KM12
[47] = tested on: HL-60
[48] = tested on: HCC 2998
[49] = tested on: Malme-3M
[50] = tested on: LXFL 529
[51] = tested on: HCT-116
[52] = tested on: ACHN
[53] = tested on: MDA-MB-435
[54] = tested on: MDA-MB-231
[55] = tested on: CCRF-CEM
[56] = tested on: IGROV-1
[57] = tested on: MOLT-4
[58] = tested on: UO-31
[59] = tested on: A549
[60] = tested on: SNB-19
[61] = tested on: SF-268
[62] = tested on: NCI-H23
[63] = tested on: HOP-18
[64] = tested on: RXF 393
[65] = tested on: DMS-114
[66] = tested on: SK-MEL-28

Structure (SMILES): CC(=O)C1(O)Cc2c(O)c3c(c(O)c2C(OC2CC(N)C(O)C(C)O2)C1)C(=O)c1ccccc1C3=O (stereo unspecified)
- GI50 [1]: 297 nM (active)
- GI50 [2]: 25.5 nM (active)
- GI50 [3]: 22.1 nM (active)
- GI50 [4]: 24.1 nM (active)
- GI50 [5]: 32.7 nM (active)
- GI50 [6]: 0.569 nM (active)
- GI50 [7]: 134 nM (active)
- GI50 [8]: 25.2 nM (active)
- GI50 [9]: 141 nM (active)
- GI50 [10]: 8.36 nM (active)
- GI50 [11]: 247 nM (active)
- GI50 [12]: 23 nM (active)
- GI50 [13]: 193 nM (active)
- GI50 [14]: 4.58 nM (active)
- GI50 [15]: 187 nM (active)
- GI50 [16]: 79.6 nM (active)
- GI50 [17]: 415 nM (active)
- GI50 [18]: 161 nM (active)
- GI50 [19]: 83 nM (active)
- GI50 [20]: 327 nM (active)
- GI50 [21]: 30.3 nM (active)
- GI50 [22]: 45.2 nM (active)
- GI50 [23]: 121 nM (active)
- GI50 [24]: 20.7 nM (active)
- GI50 [25]: 13.2 nM (active)
- GI50 [26]: 10 nM (active)
- GI50 [27]: < 15.2 nM (active)
- GI50 [28]: 15 nM (active)
- GI50 [29]: 15.2 nM (active)
- GI50 [30]: 16.3 nM (active)
- GI50 [31]: 178 nM (active)
- GI50 [32]: 45.7 nM (active)
- GI50 [33]: 14.1 nM (active)
- GI50 [34]: 254 nM (active)
- GI50 [35]: 29.2 nM (active)
- GI50 [36]: 11.5 nM (active)
- GI50 [37]: 14.1 nM (active)
- GI50 [38]: 10 nM (active)
- GI50 [39]: 22.1 nM (active)
- GI50 [40]: 53 nM (active)
- GI50 [41]: 49.7 nM (active)
- GI50 [42]: 112 nM (active)
- GI50 [43]: 16.3 nM (active)
- GI50 [44]: 27.7 nM
- GI50 [45]: < 12.5 nM (active)
- GI50 [46]: 49.8 nM (active)
- GI50 [47]: 2.06 nM (active)
- GI50 [48]: 38.5 nM (active)
- GI50 [49]: 10 nM (active)
- GI50 [50]: < 21.9 nM (active)
- GI50 [51]: 27.9 nM (active)
- GI50 [52]: 4.38 nM (active)
- GI50 [53]: 120 nM (active)
- GI50 [54]: 252 nM (active)
- GI50 [55]: 10 nM (active)
- GI50 [56]: 24.3 nM (active)
- GI50 [57]: 10 nM (active)
- GI50 [58]: 42 nM (active)
- GI50 [59]: 24.8 nM (active)
- GI50 [60]: 37.3 nM (active)
- GI50 [61]: 21.5 nM (active)
- GI50 [62]: 22.7 nM (active)
- GI50 [63]: 10 nM (active)

Structure (SMILES): CCN(CC)CSc1nc2ccccc2[nH]1
- GI50 [2]: > 100000 nM (inactive)
- GI50 [5]: > 100000 nM (inactive)
- GI50 [6]: > 100000 nM (inactive)
- GI50 [8]: > 100000 nM (inactive)
- GI50 [9]: > 100000 nM (inactive)
- GI50 [13]: > 100000 nM (inactive)
- GI50 [15]: > 100000 nM (inactive)
- GI50 [18]: > 100000 nM (inactive)
- GI50 [22]: > 100000 nM (inactive)
- GI50 [23]: > 100000 nM (inactive)
- GI50 [64]: > 100000 nM (inactive)
- GI50 [28]: > 100000 nM (inactive)
- GI50 [30]: > 100000 nM (inactive)
- GI50 [32]: > 100000 nM (inactive)
- GI50 [33]: > 100000 nM (inactive)
- GI50 [35]: > 100000 nM (inactive)
- GI50 [36]: > 100000 nM (inactive)
- GI50 [65]: > 100000 nM (inactive)
- GI50 [37]: > 100000 nM (inactive)
- GI50 [38]: > 100000 nM (inactive)
- GI50 [40]: > 100000 nM (inactive)
- GI50 [46]: > 100000 nM (inactive)
- GI50 [47]: > 100000 nM (inactive)
- GI50 [51]: > 100000 nM (inactive)
- GI50 [52]: > 100000 nM (inactive)
- GI50 [55]: > 100000 nM (inactive)
- GI50 [56]: > 100000 nM (inactive)
- GI50 [66]: > 100000 nM (inactive)
- GI50 [57]: > 100000 nM (inactive)
- GI50 [58]: > 100000 nM (inactive)
- GI50 [59]: > 100000 nM (inactive)
- GI50 [60]: > 100000 nM (inactive)
- GI50 [62]: > 100000 nM (inactive)
